Data from patent publication US4064255A, “Compositions containing new indole derivatives and their use in pharmacology” (Mar-Pha Societe d'Etudes et d'Exploitation de Marques, priority 1975, dated 1977).
pIC50: −log10 of the molar value. Like-named read-outs stand apart in the source and are kept apart here.

How the values were obtained:
[1] = test system: noradrenaline (NA) recapture by brain synaptosomes; test: in vitro inhibition of noradrenaline uptake (recapture) by rat-brain synaptosomes; assay type: biochemical; conditions: read-out: I50, dose inhibiting 50% of recapture by brain synaptosomes of noradrenaline (NA)
From the text: (§1) The entire disclosure of Kannengiesser et al is relied on in this connection and incorporated herein by reference.

[2] = test system: dopamine (DA) recapture by brain synaptosomes; test: in vitro inhibition of dopamine uptake (recapture) by rat-brain synaptosomes; assay type: biochemical; conditions: read-out: I50, dose inhibiting 50% of recapture by brain synaptosomes of dopamine (DA)
From the text: as §1

[3] = acute toxicity in mice (LD50); assay type: in vivo, male mouse CD1 (Charles River); conditions: mouse, in vivo, male CD1 mice, three days' observation
Description: (§2) The toxicity and acute symptomatologies of the compounds of the invention were determined in the male mouse CD1 (Charles River) in intravenous and oral manner. The LD50 were computed following three days' observation by the cumulative method of Reed & Muench (Am. J. Hyg. 27, 493, 1938).

5-HTP hypermotility = test: potentiation of 5-HTP hypermotility in mice; assay type: in vivo, male mouse CD1 (Charles River); conditions: 30 min after 5-HTP 150 mg/kg i.p., motility 45th-75th minute
Description: The effectiveness of the compounds of the present invention in blocking serotonine uptake also was shown using the potentiation test of 5-hydroxy tryptophane (5-HTP).
1, 11-1972. This test consists of looking for the potentiation of the hypermotility induced by 5-HTP. for high dosages the precursor will induce very characteristic hypermotility with jumps.
The animals are divided into groups of 25 mice and treated i.p. with 150 mg/kg of 5-HTP. The products to be tested are administered sub-cutaneously, 30 minutes after the 5-HTP, the control group receiving only the administrative vehicle. The overall motility of the animals is measured from the 45th to the 75th minute after (administration of) the 5-HTP. The results for the treated groups are shown in % increase in motility with respect to the control group.

[4] = test system: serotonin (5HT) recapture by brain synaptosomes; test: in vitro inhibition of serotonin uptake (recapture) by rat-brain synaptosomes; assay type: biochemical; conditions: for selectivity of action on cerebral serotonin: in words; for pIC50: rat-brain synaptosomes, 5HT, read-out: I50, dose inhibiting 50% of recapture by brain synaptosomes of serotonin (5HT)
From the text: as §1

mice = test: acute toxicity in mice (LD50); assay type: in vivo, male mouse CD1 (Charles River); conditions: intravenous, male CD1 mice, three days' observation; 4320 min
Description: as §2

[5] = intravenous, read-out: LD50 I.V.

Row | SMILES | pIC50 [1] | pIC50 [2] | LD50 at 72 h [3, 5] [mg/kg] | LD50 at 72 h ([3]; oral, read-out: LD50 orally) [mg/kg] | Potentiation of 5-HTP hypermotility, % change with respect to controls (5-HTP hypermotility; 15 mg/kg s.c.) | selectivity of action on cerebral serotonin [4] | pIC50 [4] | LD50 I.V. (mice) [mg/kg] | Potentiation of 5-HTP hypermotility, % change with respect to controls (5-HTP hypermotility; 5 mg/kg s.c.) | Potentiation of 5-HTP hypermotility, % change with respect to controls (5-HTP hypermotility; 25 mg/kg s.c.)
1 | CN(C)CCCN1c2ccccc2CCc2ccc(Cl)cc21 [Clomipramine, reference compound] | 5.15 | 5.30 | 45 | 380 | +190% |  |  |  |  | 
2 | O=C(CC1CCNCC1)c1c[nH]c2ccccc12 [Example 1, INDOLYL-3 (PIPERIDYL-4 METHYL) KETONE] | 4.70 | 4.19 |  |  |  | act more selectively than clomipramine | 7.10 | 47 |  | 
3 | COc1ccc2[nH]cc(C(=O)CC3CCNCC3)c2c1 [Example 2, (METHOXY-5 INDOLYL-3) (PIPERIDYL-4 METHYL) KETONE] | 3.80 | 4.15 | 44 | > 900 |  |  | 6.19 |  |  | 
4 | O=C(CC1CCNCC1)c1c[nH]c2ccc(Cl)cc12 [Example 3, (CHLORO-5 INDOLYL-3) (PIPERIDYL-4 METHYL) KETONE] | 4.52 | 4.92 |  | 300 to 900 |  |  | 6.22 |  |  | 
5 | Cn1cc(CCC2CCNCC2)c2ccccc21 [Example 9, [(METHYL-1 INDOLYL-3)-2 ETHYL]-4 PIPERIDINE] | 4.22 | 4.22 | 44 | 225 |  | act more selectively than clomipramine | 7.70 |  | +134% | +296%
6 | c1ccc2c(CCC3CCNCC3)c[nH]c2c1 [Example 10, [(INDOLYL-3)-2 ETHYL]-4 PIPERIDINE] | 5.10 | 5.40 | 60 | 600 |  | act more selectively than clomipramine | 7.40 |  | +196% | +262%
7 | c1ccc2c(CC3CCNCC3)c[nH]c2c1 [Example 11, (INDOLYL-3 METHYL) -4 PIPERIDINE] | 5.30 | 5.40 | 57 | 225 |  |  | 6.82 |  |  | 
8 | c1ccc2c(CCCC3CCNCC3)c[nH]c2c1 [Example 13, [(INDOLYL-3)-3 PROPYL]-4 PIPERIDINE] | 4.89 | 5.26 |  |  |  | act more selectively than clomipramine | 7.40 |  |  | 
